Measured values as given in patent publication US11459329B2, “Imidazopyridazine and imidazopyridine compounds and uses thereof” (Incyte Corporation, priority 2018, dated 2022).

Key:
ALK2 (aa 147-end) = ALK2 (aa 147-end) (Homo sapiens (Human), UniProt Q04771); experiment: ALK2 HTRF Assay; type: biochemical; conditions: 3 μM ATP, 0.5 nM ALK2, 2 hr, 25° C.; read-out: ALK2 IC50
Protocol: The enzymatic assays were conducted in white 384-well polystyrene plates in a final volume of 8 μL. The inhibitors were serially diluted in DMSO and added to the plate wells prior to addition of the other reaction components. The assays were carried out at 25° C. in the assay buffer (50 mM HEPES, pH 7.0, 10% Glycerol, 0.01% Brij50, 10 mM MgCl2, 1 mM EGTA, 5 mM DTT, and 0.01% BSA), containing 50 nM LANCE Ultra ULight™-DNA Topoisomerase 2-alpha peptide (Perkin Elmer TRF0130), and 3 μM ATP. The final concentration of DMSO in the assay was 1% and the enzyme concentration was 0.5 nM for ALK2. […] […] IC50 determination was performed by fitting percent control activity versus the log of the inhibitor concentration using the IDBS XLFit and GraphPad Prism 5.0 software.

ALK2 mutant DIPG cell = conditions: ALK2 mutant DIPG cells; cited from earlier work

ALK2 (aa 147-end), sequence (Q04771 147-509): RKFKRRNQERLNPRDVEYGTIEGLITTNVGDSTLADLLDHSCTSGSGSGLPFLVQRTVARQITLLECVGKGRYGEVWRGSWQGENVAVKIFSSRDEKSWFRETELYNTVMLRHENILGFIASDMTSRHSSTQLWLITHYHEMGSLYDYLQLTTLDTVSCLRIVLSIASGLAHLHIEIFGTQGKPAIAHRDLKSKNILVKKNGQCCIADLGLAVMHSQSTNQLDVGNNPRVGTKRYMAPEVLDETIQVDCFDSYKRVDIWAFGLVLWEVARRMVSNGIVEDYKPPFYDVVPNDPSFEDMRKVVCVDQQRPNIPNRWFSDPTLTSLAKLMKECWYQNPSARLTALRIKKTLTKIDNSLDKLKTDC

Row | SMILES | IC50 (ALK2 (aa 147-end)) [nM] | inhibition of ALK2 mutant DIPG cell viability (ALK2 mutant DIPG cell)
1 | CCn1cnc(-c2ccc3c(-c4cnc5cc(-c6ccc(CN7CCO[C@@H](C)C7)cc6)c(C)nn45)ccnc3n2)c1 [Example 58, (S)-4-(4-(3-(7-(1-ethyl-1H-imidazol-4-yl)-1,8-naphthyridin-4-yl)-6-methylimidazo[1,2-b]pyridazin-7-yl)benzyl)-2-methylmorpholine] | < 1 | 
2 | CCn1cnc(-c2ccc3c(-c4cnc5cc(-c6ccc(CN7CCO[C@H](CO)C7)cc6)c(C)nn45)ccnc3n2)c1 [Example 59, (S)-(4-(4-(3-(7-(1-ethyl-1H-imidazol-4-yl)-1,8-naphthyridin-4-yl)-6-methylimidazo[1,2-b]pyridazin-7-yl)benzyl)morpholin-2-yl)methanol] | 1 to 5 | 
3 | Cc1cnn(-c2ccc3c(-c4cnc5cc(-c6ccc(CN7CCCC7)cc6)c(C)nn45)ccnc3n2)n1 [Example 60, 2-(4-Methyl-2H-1,2,3-triazol-2-yl)-5-(6-methyl-7-(4-(pyrrolidin-1-ylmethyl)phenyl)imidazo[1,2-b]pyridazin-3-yl)-1,8-naphthyridine] | 1 to 5 | 
4 | Cc1cnn(-c2ccc3c(-c4cnc5cc(-c6cnn(C(C)C)c6)c(C)nn45)ccnc3n2)n1 [Example 61, 5-(7-(1-Isopropyl-1H-pyrazol-4-yl)-6-methylimidazo[1,2-b]pyridazin-3-yl)-2-(4-methyl-2H-1,2,3-triazol-2-yl)-1,8-naphthyridine] | 1 to 5 | 
5 | Cc1cnn(-c2ccc3c(-c4cnc5cc(-c6cnn(C7CCOCC7)c6)c(C)nn45)ccnc3n2)n1 [Example 62, 2-(4-Methyl-2H-1,2,3-triazol-2-yl)-5-(6-methyl-7-(1-(tetrahydro-2H-pyran-4-yl)-1H-pyrazol-4-yl)imidazo[1,2-b]pyridazin-3-yl)-1,8-naphthyridine] | < 1 | 
6 | Cc1cnn(-c2ccc3c(-c4cnc5cc(-c6ccc(CN(C)C)cc6)c(C)nn45)ccnc3n2)n1 [Example 63, N,N-dimethyl-1-(4-(6-methyl-3-(7-(4-methyl-2H-1,2,3-triazol-2-yl)-1,8-naphthyridin-4-yl)imidazo[1,2-b]pyridazin-7-yl)phenyl)methanamine] | 1 to 5 | 
7 | c1ccc2c(-c3cnn4cc(-c5ccc(N6CCNCC6)cc5)cnc34)ccnc2c1 [LDN-19318917] |  | significant inhibition

More lines, main results first:

Row | IC50 (ALK2 (aa 147-end)) [nM] | SMILES | inhibition of ALK2 mutant DIPG cell viability (ALK2 mutant DIPG cell)
8 | 1 to 5 | Cc1cnn(-c2ccc3c(-c4cnc5cc(-c6ccc(CN7CCOCC7)cc6)c(C)nn45)ccnc3n2)n1 [Example 64, 4-(4-(6-Methyl-3-(7-(4-methyl-2H-1,2,3-triazol-2-yl)-1,8-naphthyridin-4-yl)imidazo[1,2-b]pyridazin-7-yl)benzyl)morpholine] | 
9 | 1 to 5 | Cc1cnn(-c2ccc3c(-c4cnc5cc(-c6ccc(CN(C)C)cc6)c(C)nn45)ccnc3n2)n1 [Example 65, N,N-dimethyl-1-(4-(6-methyl-3-(7-(4-methyl-2H-1,2,3-triazol-2-yl)-1,8-naphthyridin-4-yl)imidazo[1,2-b]pyridazin-7-yl)phenyl)methanamine] | 
10 | < 1 | Cc1cnn(-c2ccc3c(-c4cnc5cc(-c6ccc(CN7CC[C@](C)(O)C7)cc6)c(C)nn45)ccnc3n2)n1 [Example 66, (S)-3-methyl-1-(4-(6-methyl-3-(7-(4-methyl-2H-1,2,3-triazol-2-yl)-1,8-naphthyridin-4-yl)imidazo[1,2-b]pyridazin-7-yl)benzyl)pyrrolidin-3-ol] | 
11 | < 1 | Cc1cnn(-c2ccc3c(-c4cnc5cc(-c6ccc(CN7CCC(O)CC7)cc6)c(C)nn45)ccnc3n2)n1 [Example 67, 1-(4-(6-methyl-3-(7-(4-methyl-2H-1,2,3-triazol-2-yl)-1,8-naphthyridin-4-yl)imidazo[1,2-b]pyridazin-7-yl)benzyl)piperidin-4-ol] | 
12 | < 1 | Cc1cnn(-c2ccc3c(-c4cnc5cc(-c6ccc(CN7CCC(C)(O)CC7)cc6)c(C)nn45)ccnc3n2)n1 [Example 68, 4-methyl-1-(4-(6-methyl-3-(7-(4-methyl-2H-1,2,3-triazol-2-yl)-1,8-naphthyridin-4-yl)imidazo[1,2-b]pyridazin-7-yl)benzyl)piperidin-4-ol] | 
13 | 1 to 5 | Cc1cnn(-c2ccc3c(-c4cnc5cc(-c6ccc(CN7CC(C)(O)C7)cc6)c(C)nn45)ccnc3n2)n1 [Example 69, 3-methyl-1-(4-(6-methyl-3-(7-(4-methyl-2H-1,2,3-triazol-2-yl)-1,8-naphthyridin-4-yl)imidazo[1,2-b]pyridazin-7-yl)benzyl)azetidin-3-ol] | 
14 | 1 to 5 | Cc1cnn(-c2ccc3c(-c4cnc5cc(-c6ccc(CN7CCN(C)CC7)cc6)c(C)nn45)ccnc3n2)n1 [Example 70, 2-(4-methyl-2H-1,2,3-triazol-2-yl)-5-(6-methyl-7-(4-((4-methylpiperazin-1-yl)methyl)phenyl)imidazo[1,2-b]pyridazin-3-yl)-1,8-naphthyridine] | 
15 | 1 to 5 | CCn1cnc(-c2ccc3c(-c4cnc5cc(-c6ccc(CN7CCC(O)CC7)cc6)c(C)nn45)ccnc3n2)c1 [Example 71, 1-(4-(3-(7-(1-Ethyl-1H-imidazol-4-yl)-1,8-naphthyridin-4-yl)-6-methylimidazo[1,2-b]pyridazin-7-yl)benzyl)piperidin-4-ol] | 
16 | < 1 | CCn1cnc(-c2ccc3c(-c4cnc5cc(-c6ccc(CN7CCC(C)(O)CC7)cc6)c(C)nn45)ccnc3n2)c1 [Example 72, 1-(4-(3-(7-(1-Ethyl-1H-imidazol-4-yl)-1,8-naphthyridin-4-yl)-6-methylimidazo[1,2-b]pyridazin-7-yl)benzyl)-4-methylpiperidin-4-ol] | 
